Values quoted from earlier work in US20250134923A1, “SUPERABSORBENT HYDROGELS WITH LIPASE INHIBITOR” (JUNION LABS PTE. LTD., priority 2021, published 2025).

Tested on: fat absorption
Conditions: therapeutic doses (120 mg with meals)

CCCCCCCCCCC[C@@H](C[C@@H]1OC(=O)[C@H]1CCCCCC)OC(=O)[C@H](CC(C)C)NC=O [Orlistat, (2S,3S,5S)-5-[(S)-2-formamido4-methyl-valeryloxy]-2-hexyl-3-hydroxy-hexadecanoic 1,3 acid lactone]
additional caloric deficit: approximately 200 calories
inhibition of fat absorption (of ingested fat): approximately 30%
